ChEMBL document CHEMBL1157275, “Biological activities of 7-epiclusianone” (J Nat Prod, 1999)
Converted amounts (≈) assume the structure as drawn. The source made the active and inactive calls. The rule behind the calls is not given here.

Experiments:
Trypanosoma cruzi [1] = assay: Antitrypanosomal activity against Trypanosoma cruzi Y trypomastigotes infected in Swiss albino mouse assessed as reduction in parasitaemia at 500 mg/kg, po after 6 hrs; type: functional, organism-based; design: dose 500 mg/kg
Trypanosoma cruzi [2] = assay: Antitrypanosomal activity against Trypanosoma cruzi Y trypomastigotes infected in Swiss albino mouse assessed as mortality rate at 100 mg/kg, po daily for 4 days assessed after 6 to 9 days; type: functional, organism-based; design: dose 100 mg/kg
Trypanosoma cruzi [3] = assay: Antitrypanosomal activity against Trypanosoma cruzi Y trypomastigotes infected in Swiss albino mouse blood assessed as reduction of parasite number at 500 ug/mL after 24 hrs; type: functional; design: scale not given: the % may be the effect or the level left
[4] = tested on: Cladosporium sphaerospermum; assay: Antifungal activity against Cladosporium sphaerospermum; type: functional, organism-based
[5] = tested on: Clavibacter michiganensis subsp. michiganensis; assay: Antimicrobial activity against Clavibacter michiganensis subsp. michiganensis; type: functional
Trypanosoma cruzi [6] = assay: Antitrypanosomal activity against Trypanosoma cruzi Y trypomastigotes infected in Swiss albino mouse blood assessed as reduction of parasite number at 125 ug/mL after 24 hrs; type: functional; design: scale not given: the % may be the effect or the level left
Listeria monocytogenes = assay: Antimicrobial activity against Listeria monocytogenes; type: functional
Trypanosoma cruzi [7] = assay: Antitrypanosomal activity against Trypanosoma cruzi Y trypomastigotes infected in Swiss albino mouse blood assessed as reduction of parasite number at 250 ug/mL after 24 hrs; type: functional; design: scale not given: the % may be the effect or the level left
Staphylococcus aureus = assay: Antibacterial activity against Staphylococcus aureus; type: functional
Biomphalaria glabrata = assay: Molluscicidal activity against Biomphalaria glabrata at 20 ppm; type: functional, organism-based
[8] = Toxicity in Artemia salina; type: organism-based; settings: in vivo

Compound | Activity (Trypanosoma cruzi [1]) | Activity (Trypanosoma cruzi [2]) | Activity (Trypanosoma cruzi [3]) [%] | Activity [4] | MIC [5] [µg/mL] | Activity (Trypanosoma cruzi [6]) [%] | IC100 (Listeria monocytogenes) [µg/mL] | Activity (Trypanosoma cruzi [7]) [%] | IC100 (Staphylococcus aureus) [µg/mL] | Activity (Biomphalaria glabrata) | LC50 [8] [µM]
O=C(Cn1ccnc1[N+](=O)[O-])NCc1ccccc1 | Active | Active | – | – | – | – | – | – | – | – | –
CC(C)=CC[C@H]1C[C@]2(CC=C(C)C)C(=O)C(C(=O)c3ccccc3)=C(O)[C@](CC=C(C)C)(C2=O)C1(C)C | Active | inactive | 92 | inactive | 4 (≈ 7.96 µM) | 17 | 80 | 38 | 80 | inactive | 49.7
